The results in this text go back to US4000985A, “Azo dyes having a high solubility in petroleum fuels” (Morton-Norwich Products, Inc., priority 1975, dated 1977).

Data set [1] is described as follows: Physical state of the isolated dye. The class given is physicochemical. Particulars: after isolation according to Procedure B. From the text:
alternatively, the crude liquid dye may be taken up with a volatile solvent and the solvent removed during the drying process to yield a non-volatile liquid colorant.

Data set [2] is described as follows: Rate and extent of dissolution in No. 1 and No. 2 Heating Oils at 25° C. (colorimetric). It counts as physicochemical. To be noted: for Percent Dissolved: 25° C. The protocol:
The solubility properties of each of the dyes of Examples 16-41 were evaluated in the fuels No. 1 and No. 2 Heating Oils, respectively. The procedure was as follows:
Where the dyes are solid dyes, excess of pulverized solid dye, far beyond that which would dissolve, i.e., 30 to 35% dye, was added to the respective oils at 25° C. and agitated at constant speed. Samples were removed at 1, 10 and 20 minute intervals, filtered, and the amount of dissolved dye determined colorimetrically.
The tarry non-solid dyes were charged in proportions of 50-60% dye to 50-40% oil rather than 30-35% used for the solid dyes. In fact, it was very difficult to stir the tarry dye-fuel oil mixture at a dye concentration of 50%. Samples for these dyes were taken after 2 minutes. The longer initial time for the tarry dyes was to permit reasonable contact between solvent and the viscous, condensed dye.

The mark [3] stands for this setting: No. 1 Fuel Oil, 1 Minute, aminoazobenzene dyes (Table 4).
The mark [4] stands for this setting: No. 1 Fuel Oil, 10 Minutes, aminoazobenzene dyes (Table 4).
[5] abbreviates: No. 1 Fuel Oil, 20 Minutes, aminoazobenzene dyes (Table 4).
Where [6] appears, read: No. 2 Fuel Oil, 1 Minute, aminoazobenzene dyes (Table 5).
The mark [7] stands for this setting: No. 2 Fuel Oil, 10 Minutes, aminoazobenzene dyes (Table 5).
Setting [8] is: No. 2 Fuel Oil, 20 Minutes, aminoazobenzene dyes (Table 5).
[9] abbreviates: No. 1 Fuel Oil, 1 Minute, aminoazotoluene dyes (Table 6).
Where [10] appears, read: No. 1 Fuel Oil, 10 Minutes, aminoazotoluene dyes (Table 6).
Where [11] appears, read: No. 1 Fuel Oil, 20 Minutes, aminoazotoluene dyes (Table 6).
The mark [12] stands for this setting: No. 2 Fuel Oil, 1 Minute, aminoazotoluene dyes (Table 7).
[13] abbreviates: No. 2 Fuel Oil, 20 Minutes, aminoazotoluene dyes (Table 7).
The mark [14] stands for this setting: No. 2 Fuel Oil, 10 Minutes, aminoazotoluene dyes (Table 7).

With `c1ccc(N=Nc2ccc(N=Nc3c(NC4CCCCC4)ccc4ccccc34)cc2)cc1` [Example 21], the “Physical State of Dye” value in data set [1] was “Solid”. Also, the “Percent Dissolved” value in data set [2] (setting [3]) came to 4.01%; in data set [2] (setting [4]) it was 2.25%; in data set [2] (setting [5]) it was 2.30%; in data set [2] (setting [6]), 3.10%; in data set [2] (setting [7]) it was 3.10%; in data set [2] (setting [8]), 3.21%.

In the case of `CCOCCOCCCNc1ccc2ccccc2c1N=Nc1ccc(N=Nc2ccccc2C)cc1C` [Example 35], the “Physical State of Dye” value in data set [1] was “Solid”. For the same compound, the “Percent Dissolved” value in data set [2] (setting [9]) was 5.33%; in data set [2] (setting [10]), 6.23%; in data set [2] (setting [11]), 7.40%; in data set [2] (setting [12]), 3.70%; in data set [2] (setting [13]) it was 3.97%.

`Cc1ccccc1N=Nc1ccc(N=Nc2c(NCCOCCO)ccc3ccccc23)c(C)c1` [Example 32]: the “Physical State of Dye” value in data set [1] is listed as “Solid”. For the same compound, the “Percent Dissolved” value is 0.09% in data set [2] (setting [9]); 0.12% in data set [2] (setting [10]); 0.13% in data set [2] (setting [11]); 0.20% in data set [2] (setting [12]); 0.15% in data set [2] (setting [14]); 0.15% in data set [2] (setting [13]).

As to `CCCCCCCCCCCCNc1ccc2ccccc2c1N=Nc1ccc(N=Nc2ccccc2)cc1` [Example 28], in data set [1], the “Physical State of Dye” value is given as “Solid”. Also, the “Percent Dissolved” value was 2.85% in data set [2] (setting [3]); 4.60% in data set [2] (setting [4]); 5.38% in data set [2] (setting [5]); 7.46% in data set [2] (setting [6]); 8.17% in data set [2] (setting [7]); 9.06% in data set [2] (setting [8]).

Regarding `CCCCCCNc1ccc2ccccc2c1N=Nc1ccc(N=Nc2ccccc2)cc1` [Example 20], the “Physical State of Dye” value in data set [1] was “Solid”. In addition, the “Percent Dissolved” value in data set [2] (setting [3]) is listed as 4.65%; in data set [2] (setting [4]), 4.47%; in data set [2] (setting [5]), 4.35%; in data set [2] (setting [6]) it was 5.12%; in data set [2] (setting [7]), 5.12%; in data set [2] (setting [8]) it was 5.27%.

On to `CCCCCCCCCCNc1ccc2ccccc2c1N=Nc1ccc(N=Nc2ccccc2)cc1` [Example 26], for which the “Physical State of Dye” value in data set [1] is on record as “Solid”. Besides, the “Percent Dissolved” value in data set [2] (setting [3]) was determined as 4.97%; in data set [2] (setting [4]) it was 5.12%; in data set [2] (setting [5]), 5.63%; in data set [2] (setting [6]), 6.36%; in data set [2] (setting [7]), 7.25%; in data set [2] (setting [8]), 8.14%.

On to `Cc1ccccc1N=Nc1ccc(N=Nc2c(NC3CCCCC3)ccc3ccccc23)c(C)c1` [Example 34], for which the “Physical State of Dye” value in data set [1] is listed as “Solid”. Also, the “Percent Dissolved” value in data set [2] (setting [9]) was determined as 0.82%; in data set [2] (setting [10]) it was 0.87%; in data set [2] (setting [11]) it was 0.94%; in data set [2] (setting [12]) it was 0.99%; in data set [2] (setting [14]), 1.05%; in data set [2] (setting [13]), 1.09%.

Consider `CCNc1ccc2ccccc2c1N=Nc1ccc(N=Nc2ccccc2)cc1` [Example 16], for which the “Physical State of Dye” value in data set [1] is “Solid”. Besides, the “Percent Dissolved” value stood at 1.05% in data set [2] (setting [3]); 1.36% in data set [2] (setting [4]); 1.48% in data set [2] (setting [5]); 1.49% in data set [2] (setting [6]); 1.64% in data set [2] (setting [7]); 1.78% in data set [2] (setting [8]).

For `CCCCCCCNc1ccc2ccccc2c1N=Nc1ccc(N=Nc2ccccc2)cc1` [Example 23], the “Physical State of Dye” value in data set [1] is “Solid”. For the same compound, the “Percent Dissolved” value in data set [2] (setting [3]) turned out to be 4.92%; in data set [2] (setting [4]) it was 7.83%; in data set [2] (setting [5]), 7.56%; in data set [2] (setting [6]), 7.11%; in data set [2] (setting [7]), 8.10%; in data set [2] (setting [8]), 8.90%.

As to `CCNc1ccc2ccccc2c1N=Nc1ccc(N=Nc2ccccc2C)cc1C` [Example 29], the “Physical State of Dye” value in data set [1] is “Solid”. Besides, the “Percent Dissolved” value in data set [2] (setting [9]) stood at 0.24%; in data set [2] (setting [10]), 0.32%; in data set [2] (setting [11]), 0.37%; in data set [2] (setting [12]) it was 0.29%; in data set [2] (setting [14]), 0.37%; in data set [2] (setting [13]), 0.39%.

`CCCCCCCNc1ccc2ccccc2c1N=Nc1ccc(N=Nc2ccccc2C)cc1C` [Example 36]: the “Physical State of Dye” value in data set [1] is recorded as “Solid”. Also, the “Percent Dissolved” value was 1.42% in data set [2] (setting [9]); 1.56% in data set [2] (setting [10]); 1.65% in data set [2] (setting [11]); 1.77% in data set [2] (setting [12]); 2.27% in data set [2] (setting [14]); 2.59% in data set [2] (setting [13]).

As for `CCCCCCCCCCCCNc1ccc2ccccc2c1N=Nc1ccc(N=Nc2ccccc2C)cc1C` [Example 41], in data set [1], the “Physical State of Dye” value is on record as “Solid”. The “Percent Dissolved” value in data set [2] (setting [9]) stood at 3.29%; in data set [2] (setting [10]), 4.04%; in data set [2] (setting [11]), 4.50%; in data set [2] (setting [12]) it was 4.48%; in data set [2] (setting [14]) it was 4.68%; in data set [2] (setting [13]), 5.21%.

As to `CCCCCCCCNc1ccc2ccccc2c1N=Nc1ccc(N=Nc2ccccc2C)cc1C` [Example 37], in data set [1], the “Physical State of Dye” value is recorded as “Solid”. Besides, the “Percent Dissolved” value in data set [2] (setting [9]) was 1.38%; in data set [2] (setting [10]) it was 1.39%; in data set [2] (setting [11]), 1.78%; in data set [2] (setting [12]) it was 2.26%; in data set [2] (setting [14]), 2.89%; in data set [2] (setting [13]) it was 2.69%.

On to `CCOCCOCCCNc1ccc2ccccc2c1N=Nc1ccc(N=Nc2ccccc2)cc1` [Example 22], for which the “Percent Dissolved” value was determined as 3.68% in data set [2] (setting [3]); 3.68% in data set [2] (setting [5]); 0.57% in data set [2] (setting [6]); 0.58% in data set [2] (setting [7]); 0.61% in data set [2] (setting [8]). Further, the “solubility in fuel oils (in words)” value in data set [2] (No. 1 and No. 2 fuel oils) is reported as “low solubility in both fuels much like that of a solid dye”.

As to `CCCCCCCCNc1ccc2ccccc2c1N=Nc1ccc(N=Nc2ccccc2)cc1` [Example 24], the “Physical State of Dye” value in data set [1] is “Solid”. Further, the “Percent Dissolved” value in data set [2] (setting [3]) was found to be 12.05%; in data set [2] (setting [4]), 7.26%; in data set [2] (setting [5]), 5.96%; in data set [2] (setting [6]), 5.48%; in data set [2] (setting [7]), 6.25%; in data set [2] (setting [8]) it was 6.25%.

Consider `CCCCCCNc1ccc2ccccc2c1N=Nc1ccc(N=Nc2ccccc2C)cc1C` [Example 33], for which the “Physical State of Dye” value in data set [1] is recorded as “Solid”. For the same compound, the “Percent Dissolved” value in data set [2] (setting [9]) came out at 1.31%; in data set [2] (setting [10]), 1.28%; in data set [2] (setting [11]), 1.27%; in data set [2] (setting [12]) it was 0.93%; in data set [2] (setting [14]), 1.01%; in data set [2] (setting [13]) it was 1.11%.

As to `COCCCNc1ccc2ccccc2c1N=Nc1ccc(N=Nc2ccccc2)cc1` [Example 18], in data set [1], the “Physical State of Dye” value is listed as “Solid”. For the same compound, the “Percent Dissolved” value in data set [2] (setting [3]) was 2.02%; in data set [2] (setting [4]) it was 3.15%; in data set [2] (setting [5]), 3.57%; in data set [2] (setting [6]), 0.66%; in data set [2] (setting [7]), 0.68%; in data set [2] (setting [8]), 0.73%.

As for `CCCCNc1ccc2ccccc2c1N=Nc1ccc(N=Nc2ccccc2C)cc1C` [Example 30], the “Physical State of Dye” value in data set [1] is given as “Solid”. For the same compound, the “Percent Dissolved” value in data set [2] (setting [9]) stood at 0.19%; in data set [2] (setting [10]) it was 0.26%; in data set [2] (setting [11]) it was 0.26%; in data set [2] (setting [12]), 0.27%; in data set [2] (setting [14]) it was 0.29%; in data set [2] (setting [13]), 0.35%.

For `OCCOCCNc1ccc2ccccc2c1N=Nc1ccc(N=Nc2ccccc2)cc1` [Example 19], the “Physical State of Dye” value in data set [1] is reported as “Solid”. Moreover, the “Percent Dissolved” value is listed as 0.06% in data set [2] (setting [3]); 0.06% in data set [2] (setting [4]); 0.06% in data set [2] (setting [5]); 0.14% in data set [2] (setting [6]); 0.17% in data set [2] (setting [7]); 0.21% in data set [2] (setting [8]).

`CCCCNc1ccc2ccccc2c1N=Nc1ccc(N=Nc2ccccc2)cc1` [Example 17]: the “Physical State of Dye” value in data set [1] is listed as “Solid”. Besides, the “Percent Dissolved” value in data set [2] (setting [3]) is 1.99%; in data set [2] (setting [4]), 1.79%; in data set [2] (setting [5]) it was 1.57%; in data set [2] (setting [6]), 1.83%; in data set [2] (setting [7]) it was 2.03%; in data set [2] (setting [8]), 2.12%.

As to `COCCCNc1ccc2ccccc2c1N=Nc1ccc(N=Nc2ccccc2C)cc1C` [Example 31], in data set [1], the “Physical State of Dye” value was “Solid”. Further, the “Percent Dissolved” value in data set [2] (setting [9]) came to 0.58%; in data set [2] (setting [10]), 0.57%; in data set [2] (setting [11]), 0.58%; in data set [2] (setting [12]), 2.96%; in data set [2] (setting [14]) it was 4.21%; in data set [2] (setting [13]), 4.96%.
